The test system of assay [1] is Normal Human Keratinocytes (NHEK). Briefly: 3H thymidine uptake in normal human keratinocytes (NHEK). It counts as cell-based. As to conditions: for % Inhibition of Control: compound at 5x10⁻⁶ molar, 3H thymidine pulse 20 hours, average of 8 wells. Here is the method:
^3H Thymidine Uptake in Normal Human Keratinocytes (NHEK): Effects of Compounds of the Invention
Second passage NHEK cells grown in MCDB 153 media with a 5% CO2 air mixture at 37° were used for experiments. Compounds of the invention which were tested were prepared at 5mM stock solutions in DMSO. Cells were grown to 60-80% confluency in 6 well trays. Compounds were added to give a concentration of 5x10⁻⁶ molar and cultures were simultaneously pulsed with 1 microCurie/mL ^3H thymidine for 20 hours. Cells were then harvested and tritium was counted using a liquid scintillation counter; results are the average of 8 wells per compound. In the control, when no compound is employed, there is 0% inhibition of thymidine uptake.
A dose response study of the compound from Example 35, using the just above described test was conducted. Concentrations of the compound from Example 35 ranging from 5x10⁻⁵ to 5x10⁻⁶ M in tenfold dilutions were conducted.

The next assay addresses PKC. Description: Mixed micellar protein kinase C (PKC) assay, in vitro inhibition of PKC. The assay is classed as biochemical. As to conditions: partially purified rat brain PKC; histone III-S substrate; 23°C, 15 minutes; 2% DMSO. The method, then:
The below listed Test Methods A and B were run in accordance with the procedures described in Bishop, W.R., Petrin, J., Wang, L., Ramesh, U., and Doll, R.J. (1990) Biochemical Pharmacology 40: No. 9, pp. 2129-2135 and Hannun et al, J. Biol. Chem. 260, 10039-10043, (1985), which are herein incorporated by reference.The following modifications were made in this procedure:
A. Protein Kinase C ("PKC") Protocol
Mixed micellular protein kinase C assays were conducted by the methods described in the two articles cited just above, (namely, Bishop et al, and Hannun et al), in a reaction mixture (0.25 mL total volume) containing: 20 mM Tris-HCl (pH 7.5); […] histone III-S; 10 mM MgCl2; 5 mM [g-32P]ATP (4 x 10^6 cpm/nmol); […] CaCl2; 32 mg/mL of phosphatidylserine; […] of 1-oleoyl-2-acetyl-glycerol and various concentrations of compounds of this invention added from a dimethyl-sulfoxide (DMSO) stock solution. The final concentration of DMSO in the reaction was 2% w/v. Reactions were started by addition of approximately […] of partially purified rat brain PKC and allowed to proceed at 23°C for 15 minutes. Reactions were terminated by collection of trichloroacetic acid-precipitated phosphorylated histone on GF/C filters using a Brandel Cell Harvester (Model No. M-24-R).

For `O=C1NCc2c1c1c3ccccc3n3c1c1c2c2ccccc2n1C1CCC3O1` (racemic) [Example 23], in assay [1], the “% Inhibition of Control” value was determined as 78.8%.

`Cc1ccc2c(c1)c1c3c(c4c5cc(C)ccc5n5c4c1n2[C@@H]1CC[C@H]5O1)C(=N)NC3=O` (relative stereo) [Example 29]: the IC50 on PKC is 42 nM.

Take `O=C1NC(=O)c2c1c1c3ccccc3n3c1c1c2c2ccccc2n1[C@@H]1O[C@H]3C[C@@H]1CO` (relative stereo) [Example 35]: the IC50 against PKC amounted to 7.5 nM; in assay [1] (Homo sapiens, 20 h, dose response study, 3H thymidine uptake in NHEK, read-out: IC₅₀) it was 1720 nM. In addition, the “% Inhibition of Control” value in assay [1] came out at 99.2%.

Regarding `O=C1NC(=O)c2c1c1c3ccccc3n3c1c1c2c2ccccc2n1[C@@H]1O[C@H]3C[C@H]1CO` (relative stereo) [Example 36], the IC50 against PKC is 10 nM.

On PKC, `NC(=O)[C@H]1C[C@@H]2O[C@H]1n1c3ccccc3c3c4c(c5c6ccccc6n2c5c31)C(=O)NC4=O` (relative stereo) [Example 37] had an IC50 of 115 nM.

For `CO[C@H]1C[C@@H]2O[C@H]1n1c3ccccc3c3c4c(c5c6ccccc6n2c5c31)C(=O)NC4=O` (relative stereo) [Example 38], the IC50 on PKC was determined as 1.4 nM.

`CS(=O)(=O)OC[C@H]1C[C@@H]2O[C@H]1n1c3ccccc3c3c4c(c5c6ccccc6n2c5c31)C(=O)NC4=O` (relative stereo) [Example 39]: the IC50 against PKC was 5 nM.

At PKC, `CS(=O)(=O)OC[C@@H]1C[C@@H]2O[C@H]1n1c3ccccc3c3c4c(c5c6ccccc6n2c5c31)C(=O)NC4=O` (relative stereo) [Example 40] displayed an IC50 of 15 nM.

Consider `[N-]=[N+]=NC[C@H]1C[C@@H]2O[C@H]1n1c3ccccc3c3c4c(c5c6ccccc6n2c5c31)C(=O)NC4=O` (relative stereo) [Example 41], for which the IC50 at PKC was 7.5 nM.

At PKC, `NC[C@@H]1C[C@@H]2O[C@H]1n1c3ccccc3c3c4c(c5c6ccccc6n2c5c31)C(=O)NC4=O` (relative stereo) [Example 45] registered an IC50 of 13 nM.

As to `O=C(NC[C@@H]1C[C@@H]2O[C@H]1n1c3ccccc3c3c4c(c5c6ccccc6n2c5c31)C(=O)NC4=O)c1ccccc1` (relative stereo) [Example 46], the IC50 at PKC came out at 230 nM.

For `O=C1NC(=O)c2c1c1c3ccccc3n3c1c1c2c2ccccc2n1[C@@H]1O[C@H]3C[C@H]1Cn1ccnc1` (relative stereo) [Example 48], at PKC, the IC50 is 7 nM.

On to `CN(C)C[C@@H]1C[C@@H]2O[C@H]1n1c3ccccc3c3c4c(c5c6ccccc6n2c5c31)C(=O)NC4=O` (relative stereo) [Example 49], for which the IC50 against PKC is 4 nM.

At PKC, `Cc1ccc2c(c1)c1c3c(c4c5cc(C)ccc5n5c4c1n2[C@@H]1C[C@@H](CO)[C@H]5O1)C(=O)NC3=O` (relative stereo) [Example 57] returned an IC50 of 23 nM.

Compound `Cc1ccc2c(c1)c1c3c(c4c5cc(C)ccc5n5c4c1n2[C@@H]1C[C@H](CO)[C@H]5O1)C(=O)NC3=O` (relative stereo) [Example 58] had an IC50 against PKC of 23 nM.

`O=C1NC(=O)c2c1c1c3ccccc3n3c1c1c2c2ccccc2n1[C@@H]1O[C@H]3C[C@H]1C(=O)O` (relative stereo) [Example 63] gave an IC50 against PKC of 20 nM.

As for `CC(C)(C)OC(=O)CNC(=O)[C@@H]1C[C@@H]2O[C@H]1n1c3ccccc3c3c4c(c5c6ccccc6n2c5c31)C(=O)NC4=O` (relative stereo) [Example 64], the IC50 on PKC was 19 nM.

At PKC, `CNC(=O)[C@@H]1C[C@@H]2O[C@H]1n1c3ccccc3c3c4c(c5c6ccccc6n2c5c31)C(=O)NC4=O` (relative stereo) [Example 65] came in with an IC50 of 0.5 nM.

Compound `O=C1NC(=O)c2c1c1c3ccccc3n3c1c1c2c2ccccc2n1[C@@H]1O[C@H]3C[C@H]1C(=O)NCc1ccccc1` (relative stereo) [Example 66] returned an IC50 on PKC of 20 nM.

`NC(=O)[C@@H]1C[C@@H]2O[C@H]1n1c3ccccc3c3c4c(c5c6ccccc6n2c5c31)C(=O)NC4=O` (relative stereo) [Example 67] came in with an IC50 on PKC of 0.6 nM.

For the compound `CN(C)C(=O)[C@@H]1C[C@@H]2O[C@H]1n1c3ccccc3c3c4c(c5c6ccccc6n2c5c31)C(=O)NC4=O` (relative stereo) [Example 68], the IC50 on PKC worked out at 1 nM.

On to `O=C(O)CNC(=O)[C@@H]1C[C@@H]2O[C@H]1n1c3ccccc3c3c4c(c5c6ccccc6n2c5c31)C(=O)NC4=O` (relative stereo) [Example 69], for which the IC50 on PKC amounted to 0.8 nM.

Take `O=C1NC(=O)c2c1c1c3ccccc3n3c1c1c2c2ccccc2n1[C@H]1CC[C@@H]3O1` [Example 22]: the “% Inhibition of Control” value in assay [1] is listed as 77.3%.

`S=C1NC(=S)c2c1c1c3ccccc3n3c1c1c2c2ccccc2n1[C@H]1CC[C@@H]3O1` [Example 25]: the IC50 on PKC was 13 nM.

In turn, `O=C1NC(O)c2c1c1c3ccccc3n3c1c1c2c2ccccc2n1[C@H]1CC[C@@H]3O1` (stereo partly drawn) [Example 26] returned an IC50 at PKC of 19 nM.

For the compound `Cc1ccc2c(c1)c1c(Br)c(Br)c3c4cc(C)ccc4n4c3c1n2[C@@H]1CC[C@H]4O1` [Example 27], the IC50 at PKC was found to be 18 nM.

On PKC, `Cc1ccc2c(c1)c1c(C#N)c(C#N)c3c4cc(C)ccc4n4c3c1n2[C@@H]1CC[C@H]4O1` [Example 28] had an IC50 of 58 nM.

On to `Cc1ccc2c(c1)c1c3c(c4c5cc(C)ccc5n5c4c1n2[C@@H]1CC[C@H]5O1)C(=O)NC3=O` [Example 30], for which the IC50 at PKC was 50 nM.

These data come from patent EP0508792A1, “Anti-tumor and anti-psoriatic agents” (SCHERING CORPORATION, priority 1991, dated 1992).
